The text below walks through data of publication PMC11928584, “H105A peptide eye drops promote photoreceptor survival in murine and human models of retinal degeneration” (Communications Medicine, 2025).

This assay relates to human iPSC-derived retinal organoids exposed to CSE. The assay is described as follows: Ethidium homodimer staining of live retinal organoids (3D-ARQ). The format is cell-based. The settings on record: D180 ROs, 24 h, mean ± SD, n=14. As for the experimental part: Human iPSCs were differentiated into retinal organoids (ROs) following the protocol by Zhong et al.[41]. Briefly, on Day 0, hiPSC colonies were dissociated with dispase and grown in a suspension to form embryoid bodies, and slowly transitioned to neural induction media (DMEM/F12 (1:1), 1% N2 supplement (Invitrogen), 1 x minimum essential media-nonessential amino acids (NEAAs), 2 µg/ml heparin (Sigma)). On Day 7, EBs were seeded on Matrigel coated plates and maintained in neural induction media. On Day 16, the media was switched to the retinal differentiation medium (DMEM/F12 (3:1), 2% B27 (without vitamin A, Invitrogen), 1x NEAA and 1% antibiotic–antimycotic (Gibco)). Retinal domains were identified and lifted manually with tungsten needles between Day 21 and Day 26 under a phase contrast microscope. On day 30, the culture medium was transitioned to DMEM/F12 (3:1) with 2% B27, 1x NEAA, 1% antibiotic–antimycotic, 10% fetal bovine serum (FBS; Gibco), […] Taurine (Sigma), and 2 mM GlutaMAX (Invitrogen). Additionally, 1 µM retinoic acid supplement was introduced daily starting from day 63. […]
After treatment, ROs were washed in PBS (Gibco, 14190-144) and the auto-fluorescent background was measured by 3D-automated reporter quantification (3D-ARQ)[42], using a Tecan Spark Plate reader (SparkControl v2.3). The Z-position was determined manually by selecting the individual well and fluorescent intensity was measured using the optimized parameters below. […] After incubation, ROs were washed three times with PBS, and fluorescence intensity was measured by 3D-ARQ using the following parameters: Mode: Fluorescent top reading; Wavelength for PSVue-794: Excitation: Emission 730:820 nm, Excitation bandwidth: 10 nm, Emission bandwidth: 15 nm; Wavelength for Ethidium Homodimer: Excitation: Emission 530:630 nm, Excitation bandwidth: 5 nm, Emission bandwidth: 5 nm; Gain: 160, Manual; Number of flashes: 20; integration time: 40 µs; lag time 0 µs. […] Results were analysed after background subtraction; n = 19-24 ROs per condition. […]

Where a SMILES comes first, the peptide text is derived from it.

On to `CC[C@H](C)[C@H](NC(=O)[C@H](CC(C)C)NC(=O)[C@H](CC(=O)O)NC(=O)[C@H](Cc1ccc(O)cc1)NC(=O)[C@H](Cc1ccc(O)cc1)NC(=O)[C@H](CC(C)C)NC(=O)[C@H](C)NC(=O)[C@H](CCCNC(=N)N)NC(=O)[C@H](C)NC(=O)[C@@H](NC(=O)[C@@H](NC(=O)[C@H](CO)NC(=O)[C@H](CCC(=O)O)NC(=O)[C@@H](NC(=O)[C@H](CCCNC(=N)N)NC(=O)[C@@H](N)CCC(N)=O)[C@@H](C)O)[C@@H](C)CC)[C@@H](C)CC)C(=O)N[C@@H](CO)C(=O)O` [H105A] (H-QRTESIIARALYYDLIS-OH), for which the “Fluorescence intensity of Ethidium homodimer” value is, setting by setting: (CSE 500 µg/ml + peptide 1 nM) 848.9 ± 51.0 RFU; (CSE 500 µg/ml + peptide 20 nM) 919.2 ± 46.0 RFU.

Turning to `CC[C@H](C)[C@H](NC(=O)[C@H](CC(C)C)NC(=O)[C@H](CC(=O)O)NC(=O)[C@H](Cc1ccc(O)cc1)NC(=O)[C@H](Cc1ccc(O)cc1)NC(=O)[C@H](CC(C)C)NC(=O)[C@H](C)NC(=O)[C@H](CCCNC(=N)N)NC(=O)[C@H](Cc1c[nH]cn1)NC(=O)[C@@H](NC(=O)[C@@H](NC(=O)[C@H](CO)NC(=O)[C@H](CCC(=O)O)NC(=O)[C@@H](NC(=O)[C@H](C)NC(=O)[C@@H](N)CCC(N)=O)[C@@H](C)O)[C@@H](C)CC)[C@@H](C)CC)C(=O)N[C@@H](CO)C(=O)O` [R99A] (H-QATESIIHRALYYDLIS-OH), where the note is “CSE 500 µg/ml + peptide 20 nM”, the “Fluorescence intensity of Ethidium homodimer” value turned out to be 1283.2 ± 67.6 RFU.
